Source: ChEMBL document CHEMBL1201862, “PubChem BioAssay data set” (2004)
Active and inactive are the calls of the source.

Legend:
[1] = NIH-3T3 fibroblast cytotoxicity, dose response, cytotoxicity control, cell-based, fluorescence, Alamar Blue, secondary assay (AID 2327); type: functional;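 further: NIH-3T3 mouse fibroblasts cultured with fluconazole at 8 µg/mL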
[2] = C. albicans growth with fluconazole, confirmation, fluorescence, retest (AID 2467); type: functional, cell-based
[3] = molecular target: T1, Serine/threonine-protein phosphatase (Candida dubliniensis (strain CD36 / CBS 7987 / NCPF 3949 / NRRLY-17841) (Yeast), UniProt B9W6M3); assay: calcineurin pathway inhibitors in yeast reporter, dose response, S. cerevisiae, CDRE-lacZ, luminescence, secondary (AID 2388); type: functional, cell-based;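 further: yeast reporter cells carrying a calcineurin-responsive lacZ construct stimulated with calcium chloride; luminescent beta-galactosidase reporter signal in whole cells rather than isolated phosphatase activity; potency for inhibition where a drop in reporter signal means calcineurin blockade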
T1 sequence (B9W6M3 whole entry): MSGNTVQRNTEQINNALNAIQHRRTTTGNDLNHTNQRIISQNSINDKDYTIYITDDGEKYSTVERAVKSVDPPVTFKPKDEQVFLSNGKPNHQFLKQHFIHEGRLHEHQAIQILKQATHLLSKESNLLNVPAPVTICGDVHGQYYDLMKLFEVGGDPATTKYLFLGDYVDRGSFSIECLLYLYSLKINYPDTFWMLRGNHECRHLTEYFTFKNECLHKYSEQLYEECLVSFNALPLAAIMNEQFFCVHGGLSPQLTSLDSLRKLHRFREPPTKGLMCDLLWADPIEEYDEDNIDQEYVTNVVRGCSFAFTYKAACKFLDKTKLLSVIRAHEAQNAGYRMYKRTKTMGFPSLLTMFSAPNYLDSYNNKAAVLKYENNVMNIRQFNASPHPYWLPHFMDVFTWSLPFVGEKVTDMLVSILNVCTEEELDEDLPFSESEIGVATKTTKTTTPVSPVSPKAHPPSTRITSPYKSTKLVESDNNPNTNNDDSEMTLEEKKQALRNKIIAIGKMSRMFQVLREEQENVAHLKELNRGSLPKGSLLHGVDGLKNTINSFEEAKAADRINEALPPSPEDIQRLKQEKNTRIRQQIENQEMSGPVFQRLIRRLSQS

Tumor necrosis factor = Tumor necrosis factor (Homo sapiens, UniProt P01375); assay: TNFa-triggered NF-kB activation inhibitors, SAR follow-up, cell-based, revised (AID 2337); type: functional
[4] = molecular target: T2, Nucleotide-binding oligomerization domain-containing protein 1 (Homo sapiens, UniProt Q9Y239); assay: NOD1 signaling inhibitors, SAR follow-up, revised (AID 2333); type: functional
T2 sequence (Q9Y239 whole entry): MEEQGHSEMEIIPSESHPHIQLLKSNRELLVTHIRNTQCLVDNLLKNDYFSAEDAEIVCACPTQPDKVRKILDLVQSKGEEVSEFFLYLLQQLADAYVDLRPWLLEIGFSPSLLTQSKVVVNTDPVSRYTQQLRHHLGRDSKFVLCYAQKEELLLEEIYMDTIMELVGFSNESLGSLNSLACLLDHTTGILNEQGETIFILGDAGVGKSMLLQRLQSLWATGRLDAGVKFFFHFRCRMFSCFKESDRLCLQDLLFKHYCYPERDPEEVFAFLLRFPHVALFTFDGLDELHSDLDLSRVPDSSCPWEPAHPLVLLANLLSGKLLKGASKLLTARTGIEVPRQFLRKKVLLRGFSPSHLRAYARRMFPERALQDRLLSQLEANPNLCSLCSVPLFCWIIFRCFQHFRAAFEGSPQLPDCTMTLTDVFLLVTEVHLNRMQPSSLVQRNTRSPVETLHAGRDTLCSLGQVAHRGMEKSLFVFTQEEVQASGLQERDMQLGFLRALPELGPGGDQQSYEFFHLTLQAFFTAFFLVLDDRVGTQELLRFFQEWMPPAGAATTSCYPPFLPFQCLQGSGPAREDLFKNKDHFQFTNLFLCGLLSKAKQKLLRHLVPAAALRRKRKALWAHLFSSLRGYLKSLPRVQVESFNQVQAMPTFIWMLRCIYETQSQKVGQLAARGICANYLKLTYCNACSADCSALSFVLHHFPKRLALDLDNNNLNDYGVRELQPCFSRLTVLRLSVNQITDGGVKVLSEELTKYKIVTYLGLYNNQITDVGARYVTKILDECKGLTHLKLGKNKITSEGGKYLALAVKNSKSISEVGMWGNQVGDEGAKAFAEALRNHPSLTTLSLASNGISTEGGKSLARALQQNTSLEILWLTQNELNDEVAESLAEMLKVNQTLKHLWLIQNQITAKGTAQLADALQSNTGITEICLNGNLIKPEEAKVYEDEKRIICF

[5] = cytotoxicity in HEK-293T cells, dose response, cytotoxicity control for TCR NF-kB inhibitor project, luminescence, T-cell screen hits (AID 489026); type: functional, cell-based;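 further: cells exposed to compound about 14 hours before the viability readout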
INS1 = assay: beta cell apoptosis inhibitors, cytokine rescue, dose response, luminescence, retest (AID 449756); type: functional, cell-based; details: Rattus norvegicus;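 further: cell death triggered by IL-1 beta plus TNF-alpha plus IFN-gamma mixture; protective hits raise ATP signal compared with cytokine alone wells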
[6] = molecular target: ATP-dependent molecular chaperone HSP82 (Candida albicans (strain WO-1) (Yeast), UniProt C4YTQ8); assay: loss of DOC-induced GRE-beta-galactosidase reporter signal, dose response, Hsp90 inhibitor project, S. cerevisiae, luminescence (AID 2400); type: functional, cell-based;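 further: beta-galactosidase luminescence from glucocorticoid response element reporter as proxy for Hsp90 function; inhibitor potency where signal loss means Hsp90 inhibition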
[7] = molecular target: T3, COUP transcription factor 2 (Homo sapiens, UniProt P24468); assay: Luminescence-based cell-based high throughput dose response assay to identify inhibitors of COUP-TFII (NR2F2).; type: functional;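 further: HEK293 cells transiently cotransfected with COUP-TFII expression vector and reporter; luciferase reporter luminescence driven by COUP-TFII from the pX2-168 reporter plasmid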
T3 sequence (P24468 whole entry): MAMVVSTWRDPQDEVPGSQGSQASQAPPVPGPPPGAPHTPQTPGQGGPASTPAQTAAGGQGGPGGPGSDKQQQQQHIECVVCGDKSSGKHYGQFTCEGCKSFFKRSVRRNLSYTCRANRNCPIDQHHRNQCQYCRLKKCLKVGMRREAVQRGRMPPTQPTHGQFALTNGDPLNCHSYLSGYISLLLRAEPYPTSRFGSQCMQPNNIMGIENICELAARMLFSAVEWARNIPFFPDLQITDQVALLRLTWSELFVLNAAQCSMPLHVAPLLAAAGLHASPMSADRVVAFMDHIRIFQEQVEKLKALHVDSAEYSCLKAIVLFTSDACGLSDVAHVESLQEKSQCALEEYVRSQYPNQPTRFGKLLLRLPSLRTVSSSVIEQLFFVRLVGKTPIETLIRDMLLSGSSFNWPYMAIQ

HEK293 = assay: cells; details: Homo sapiens;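 further: cells exposed to compound for 14 hours overnight before viability readout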
Escherichia coli = assay: microbe, parasite or virus in culture
Cytochrome P450 2C19 = Cytochrome P450 2C19 (Homo sapiens, UniProt P33261); assay: Cytochrome panel assay with activity outcomes. Panel member name: p450-cyp2c19 Compounds with AC50 equal or less than 10 uM are considered active; type: functional; details: read-out: AC50
[8] = molecular target: Dual specificity tyrosine-phosphorylation-regulated kinase 1A (Rattus norvegicus, UniProt Q63470); type: biochemical, Homo sapiens
Cytochrome P450 2C9 = Cytochrome P450 2C9 (Homo sapiens, UniProt P11712)
Chain of Cytochrome P450 2C9 (P11712 whole entry): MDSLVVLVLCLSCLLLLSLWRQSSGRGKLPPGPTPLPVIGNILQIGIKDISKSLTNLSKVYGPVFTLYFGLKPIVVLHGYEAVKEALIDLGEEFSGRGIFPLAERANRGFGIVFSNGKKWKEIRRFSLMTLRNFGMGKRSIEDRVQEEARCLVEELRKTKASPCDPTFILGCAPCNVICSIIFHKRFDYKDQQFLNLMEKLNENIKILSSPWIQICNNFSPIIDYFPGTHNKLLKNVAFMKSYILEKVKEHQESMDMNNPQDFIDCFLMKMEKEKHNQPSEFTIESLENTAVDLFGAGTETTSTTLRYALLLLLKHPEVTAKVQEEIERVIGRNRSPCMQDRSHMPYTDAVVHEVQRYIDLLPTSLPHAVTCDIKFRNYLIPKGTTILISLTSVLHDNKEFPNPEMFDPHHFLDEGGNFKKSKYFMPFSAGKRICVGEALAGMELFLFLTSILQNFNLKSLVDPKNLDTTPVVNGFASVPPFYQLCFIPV

Chain of Cytochrome P450 2C19 (P33261 whole entry): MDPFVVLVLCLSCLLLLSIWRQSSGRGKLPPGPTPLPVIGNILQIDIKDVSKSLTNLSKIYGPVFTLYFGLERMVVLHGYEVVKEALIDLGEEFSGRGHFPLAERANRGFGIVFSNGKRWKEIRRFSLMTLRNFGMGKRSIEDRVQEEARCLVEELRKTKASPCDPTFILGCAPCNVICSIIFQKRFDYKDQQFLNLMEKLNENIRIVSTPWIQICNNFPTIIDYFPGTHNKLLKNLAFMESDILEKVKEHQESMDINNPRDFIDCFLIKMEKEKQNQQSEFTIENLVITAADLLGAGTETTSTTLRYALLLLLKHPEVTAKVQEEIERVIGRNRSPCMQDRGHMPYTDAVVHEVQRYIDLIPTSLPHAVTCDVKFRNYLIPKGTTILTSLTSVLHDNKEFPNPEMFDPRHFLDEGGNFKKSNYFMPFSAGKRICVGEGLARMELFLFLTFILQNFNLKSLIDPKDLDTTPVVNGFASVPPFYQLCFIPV
Chain of ATP-dependent molecular chaperone HSP82 (C4YTQ8 whole entry): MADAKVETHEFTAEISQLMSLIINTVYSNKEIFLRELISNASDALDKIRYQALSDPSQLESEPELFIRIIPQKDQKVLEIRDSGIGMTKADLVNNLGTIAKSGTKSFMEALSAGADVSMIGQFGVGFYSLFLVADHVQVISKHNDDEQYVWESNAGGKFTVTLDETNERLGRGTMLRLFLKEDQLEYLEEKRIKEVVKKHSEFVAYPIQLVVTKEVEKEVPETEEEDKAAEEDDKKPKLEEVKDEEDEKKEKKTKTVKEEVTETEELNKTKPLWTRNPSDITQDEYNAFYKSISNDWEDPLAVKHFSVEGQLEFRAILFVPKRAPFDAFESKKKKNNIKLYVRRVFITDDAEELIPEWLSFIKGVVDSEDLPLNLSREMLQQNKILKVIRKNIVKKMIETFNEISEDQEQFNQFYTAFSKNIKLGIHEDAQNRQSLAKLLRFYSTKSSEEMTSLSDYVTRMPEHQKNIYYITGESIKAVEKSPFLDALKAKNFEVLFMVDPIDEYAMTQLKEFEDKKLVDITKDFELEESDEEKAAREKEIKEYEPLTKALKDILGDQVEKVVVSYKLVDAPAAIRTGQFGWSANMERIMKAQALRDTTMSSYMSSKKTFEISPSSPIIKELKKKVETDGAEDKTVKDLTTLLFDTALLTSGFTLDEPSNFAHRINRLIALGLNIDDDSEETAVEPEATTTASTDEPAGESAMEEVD
Chain of Tumor necrosis factor (P01375 whole entry, the tested form may be a part): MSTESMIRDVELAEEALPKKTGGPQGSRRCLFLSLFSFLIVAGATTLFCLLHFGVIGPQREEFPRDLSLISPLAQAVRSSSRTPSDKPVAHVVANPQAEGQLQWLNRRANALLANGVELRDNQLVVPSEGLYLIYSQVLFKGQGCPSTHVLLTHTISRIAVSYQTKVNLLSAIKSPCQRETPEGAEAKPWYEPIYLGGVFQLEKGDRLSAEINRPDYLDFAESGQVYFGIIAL

With `CCc1cc(C(=O)NC2CCCc3c2cnn3-c2cccc(C)c2C)n(C)n1` (centres undefined) the EC50 [1] was > 150 µM (inactive), the EC50 [2] was 0.142 µM (active) and the EC50 [3] was > 180 µM (inactive). The IC50 (Tumor necrosis factor) was 0.179 µM (active), the IC50 [4] was 0.0983 µM (active) and the IC50 [5] was > 80 µM (inactive). The AC50 (INS1) was < 0.195 µM (active), the EC50 [6] was > 150 µM (inactive) and the IC50 [7] was > 0.117 µM (active). The IC50 (HEK293) was > 20 µM (inactive).
In the case of `Cc1ccc2c(CC(=O)Nc3ccc(N4CCN(C)CC4)cc3C)coc2c1`, the AC50 (Escherichia coli) is reported as 43.5 µM (active).
With `NC1=NC(=O)/C(=C/c2cccs2)S1` the AC50 (Cytochrome P450 2C19) was 25.1 µM (inconclusive), the AC50 [8] was 1.21 µM (active) and the AC50 (Cytochrome P450 2C9) was “inconclusive”.
